Patent US10481149B2
Where two headings read alike, the source gives them in different places.

Legend:
BSEP [1] = target: T1, BSEP (Macaca fascicularis, UniProt D2CFL3); experiment: in vitro; settings: monkey, hepatocytes in suspension, probe glycocholate
BSEP [2] = target: T2, BSEP (Canis lupus familiaris, UniProt B8K1W2); experiment: Inhibition of BSEP activity (transport of taurocholate) in dog hepatocytes
T2 sequence (B8K1W2 1-1325): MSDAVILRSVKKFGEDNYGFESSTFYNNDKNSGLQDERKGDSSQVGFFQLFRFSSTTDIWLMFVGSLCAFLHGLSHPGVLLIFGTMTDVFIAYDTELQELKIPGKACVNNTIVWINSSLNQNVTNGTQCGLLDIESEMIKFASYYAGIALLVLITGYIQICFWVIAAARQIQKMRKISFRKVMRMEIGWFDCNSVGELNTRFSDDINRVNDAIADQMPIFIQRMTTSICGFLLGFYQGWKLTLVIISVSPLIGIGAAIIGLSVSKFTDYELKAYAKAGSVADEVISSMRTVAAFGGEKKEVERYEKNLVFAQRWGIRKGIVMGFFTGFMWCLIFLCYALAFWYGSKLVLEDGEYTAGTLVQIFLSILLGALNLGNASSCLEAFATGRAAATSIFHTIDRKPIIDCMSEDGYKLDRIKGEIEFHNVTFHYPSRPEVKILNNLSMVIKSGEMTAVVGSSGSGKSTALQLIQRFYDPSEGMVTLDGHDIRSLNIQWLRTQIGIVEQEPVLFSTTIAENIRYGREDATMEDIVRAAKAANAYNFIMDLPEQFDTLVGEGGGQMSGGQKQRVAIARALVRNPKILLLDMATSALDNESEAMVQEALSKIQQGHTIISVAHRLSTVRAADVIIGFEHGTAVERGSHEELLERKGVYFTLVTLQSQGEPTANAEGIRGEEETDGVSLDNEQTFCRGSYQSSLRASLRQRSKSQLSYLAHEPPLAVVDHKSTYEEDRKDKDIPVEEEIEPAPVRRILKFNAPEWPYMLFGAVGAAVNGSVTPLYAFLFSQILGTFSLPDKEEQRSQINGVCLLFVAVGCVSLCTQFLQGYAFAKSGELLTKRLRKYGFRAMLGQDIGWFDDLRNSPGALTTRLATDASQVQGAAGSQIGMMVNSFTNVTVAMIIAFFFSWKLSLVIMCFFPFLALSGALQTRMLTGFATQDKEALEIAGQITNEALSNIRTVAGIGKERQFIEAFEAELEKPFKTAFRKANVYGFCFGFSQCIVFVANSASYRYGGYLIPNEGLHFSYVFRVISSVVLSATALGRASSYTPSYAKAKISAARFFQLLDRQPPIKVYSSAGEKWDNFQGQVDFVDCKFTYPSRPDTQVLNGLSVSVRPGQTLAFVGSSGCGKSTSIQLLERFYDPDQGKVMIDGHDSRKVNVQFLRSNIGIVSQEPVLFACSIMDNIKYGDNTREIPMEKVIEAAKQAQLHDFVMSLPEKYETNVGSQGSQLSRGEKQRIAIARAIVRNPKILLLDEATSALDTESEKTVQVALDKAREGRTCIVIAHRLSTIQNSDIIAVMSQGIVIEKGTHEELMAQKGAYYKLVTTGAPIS

BSEP [3] = target: T1, BSEP; experiment: in vitro; settings: monkey, hepatocytes in suspension, probe taurocholate
BSEP [4] = target: T3, BSEP (Mus musculus, UniProt Q9QY30); experiment: IC50 for inhibition of BSEP activity in mouse hepatocytes; type: cell-based
T3 sequence (Q9QY30 1-1321): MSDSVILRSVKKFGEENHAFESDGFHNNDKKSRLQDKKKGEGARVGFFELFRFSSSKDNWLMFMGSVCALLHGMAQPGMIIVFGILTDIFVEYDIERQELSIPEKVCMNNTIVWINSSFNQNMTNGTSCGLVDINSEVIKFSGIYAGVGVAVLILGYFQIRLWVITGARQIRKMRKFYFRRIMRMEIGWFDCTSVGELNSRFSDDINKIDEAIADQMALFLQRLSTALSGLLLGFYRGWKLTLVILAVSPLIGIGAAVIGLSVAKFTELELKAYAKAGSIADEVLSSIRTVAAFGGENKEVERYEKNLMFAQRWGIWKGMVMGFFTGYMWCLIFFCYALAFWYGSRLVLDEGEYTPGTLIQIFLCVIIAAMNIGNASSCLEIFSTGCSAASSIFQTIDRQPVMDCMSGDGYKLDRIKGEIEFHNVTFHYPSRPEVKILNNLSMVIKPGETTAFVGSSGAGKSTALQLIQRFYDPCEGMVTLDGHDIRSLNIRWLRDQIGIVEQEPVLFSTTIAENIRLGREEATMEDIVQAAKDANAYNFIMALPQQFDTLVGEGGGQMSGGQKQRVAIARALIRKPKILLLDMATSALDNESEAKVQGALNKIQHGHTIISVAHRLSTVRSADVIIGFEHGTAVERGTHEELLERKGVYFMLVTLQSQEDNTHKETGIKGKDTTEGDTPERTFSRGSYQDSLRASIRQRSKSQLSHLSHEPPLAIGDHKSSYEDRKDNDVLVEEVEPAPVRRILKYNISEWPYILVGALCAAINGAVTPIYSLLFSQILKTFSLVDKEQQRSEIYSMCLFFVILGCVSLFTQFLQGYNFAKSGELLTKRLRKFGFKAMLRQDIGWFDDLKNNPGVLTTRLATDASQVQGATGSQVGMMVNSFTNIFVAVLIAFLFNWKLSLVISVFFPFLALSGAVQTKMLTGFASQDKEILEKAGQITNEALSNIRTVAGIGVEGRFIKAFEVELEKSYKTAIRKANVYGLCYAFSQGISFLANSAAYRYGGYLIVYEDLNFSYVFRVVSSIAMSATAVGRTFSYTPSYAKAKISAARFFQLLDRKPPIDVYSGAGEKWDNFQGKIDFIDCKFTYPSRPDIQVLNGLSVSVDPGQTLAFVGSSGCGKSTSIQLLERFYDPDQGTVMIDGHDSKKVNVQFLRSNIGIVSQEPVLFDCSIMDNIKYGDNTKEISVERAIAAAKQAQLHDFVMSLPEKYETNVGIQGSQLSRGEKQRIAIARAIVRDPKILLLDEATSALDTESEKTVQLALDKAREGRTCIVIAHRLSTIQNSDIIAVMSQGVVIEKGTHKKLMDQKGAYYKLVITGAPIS
Procedure: (§1) Kinetic parameters were calculated using standard Michaelis-Menten kinetics. IC50 values were determined using Prism software (La Jolla, Calif.) or median-effect equation. [Chou et al., Theoretical basis, experimental design, and computerized simulation of synergism and antagonism in Drug Combination Studies. Pharmacological Reviews 58, 621, 2006]

BSEP [5] = target: T1, BSEP; experiment: IC50 for inhibition of BSEP activity in monkey hepatocytes; type: cell-based; settings: hepatocytes in suspension
Procedure: as §1

BSEP [6] = target: T2, BSEP; experiment: IC50 for inhibition of BSEP activity in dog hepatocytes; type: cell-based
Procedure: as §1

[7] = hepatocytes in suspension, probe taurocholate

T1 sequence (D2CFL3 1-1323): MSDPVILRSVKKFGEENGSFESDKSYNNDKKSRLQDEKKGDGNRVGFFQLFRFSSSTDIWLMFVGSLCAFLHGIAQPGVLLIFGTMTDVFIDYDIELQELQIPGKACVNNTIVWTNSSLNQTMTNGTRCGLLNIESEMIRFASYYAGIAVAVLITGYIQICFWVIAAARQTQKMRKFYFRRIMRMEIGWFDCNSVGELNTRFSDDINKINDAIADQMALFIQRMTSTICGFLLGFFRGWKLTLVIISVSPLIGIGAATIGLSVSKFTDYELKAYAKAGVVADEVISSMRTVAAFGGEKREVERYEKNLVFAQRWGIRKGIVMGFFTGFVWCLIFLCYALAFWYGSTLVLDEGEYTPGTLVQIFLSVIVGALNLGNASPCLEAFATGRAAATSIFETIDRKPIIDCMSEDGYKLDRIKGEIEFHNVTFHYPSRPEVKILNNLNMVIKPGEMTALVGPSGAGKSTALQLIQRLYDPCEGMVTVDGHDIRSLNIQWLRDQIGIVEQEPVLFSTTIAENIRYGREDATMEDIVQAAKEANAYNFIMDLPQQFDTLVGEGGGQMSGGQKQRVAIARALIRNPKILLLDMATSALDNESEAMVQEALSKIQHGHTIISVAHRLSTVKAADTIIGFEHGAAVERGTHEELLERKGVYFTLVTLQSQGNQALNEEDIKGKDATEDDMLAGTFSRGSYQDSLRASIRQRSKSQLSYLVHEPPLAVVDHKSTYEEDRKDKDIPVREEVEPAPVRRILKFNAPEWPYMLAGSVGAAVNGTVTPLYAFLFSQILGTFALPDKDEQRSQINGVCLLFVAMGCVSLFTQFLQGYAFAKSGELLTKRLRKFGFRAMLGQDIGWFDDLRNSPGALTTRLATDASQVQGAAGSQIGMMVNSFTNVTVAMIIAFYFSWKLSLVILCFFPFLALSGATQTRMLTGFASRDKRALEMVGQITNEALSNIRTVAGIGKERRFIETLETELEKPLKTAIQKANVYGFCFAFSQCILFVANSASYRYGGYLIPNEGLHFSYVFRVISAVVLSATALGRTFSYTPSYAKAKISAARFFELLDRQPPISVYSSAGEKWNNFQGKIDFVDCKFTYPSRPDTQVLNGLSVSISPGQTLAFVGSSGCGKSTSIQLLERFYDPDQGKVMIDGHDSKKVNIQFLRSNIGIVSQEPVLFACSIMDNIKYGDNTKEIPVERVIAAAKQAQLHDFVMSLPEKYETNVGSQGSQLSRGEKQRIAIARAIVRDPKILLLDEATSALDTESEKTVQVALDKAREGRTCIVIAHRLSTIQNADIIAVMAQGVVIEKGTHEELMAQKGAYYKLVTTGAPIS

| Structure (SMILES) | inhibition at 1 h, 1 μM (BSEP [1]) [%] | inhibition at 1 h, 10 μM (BSEP [1]) [%] | inhibition at 1 h, 1 μM (BSEP [2]; [7]) [%] | inhibition at 1 h, 10 μM (BSEP [2]; [7]) [%] | inhibition at 1 h, 1 μM (BSEP [3]) [%] | inhibition at 1 h, 10 μM (BSEP [3]) [%] | IC50 (BSEP [4]) [µM] | IC50 at 1 h (BSEP [5]) [µM] | IC50 (BSEP [6]) [µM] | inhibition at 1 h, 1 μM (BSEP [2]) [%] | inhibition at 1 h, 10 μM (BSEP [2]) [%] |
| --- | --- | --- | --- | --- | --- | --- | --- | --- | --- | --- | --- |
| COC(=O)N[C@H](C(=O)N[C@@H](Cc1ccccc1)[C@@H](O)CN(Cc1ccc(-c2ccccn2)cc1)NC(=O)[C@@H](NC(=O)OC)C(C)(C)C)C(C)(C)C [Atazanavir, atazanavir] | < 50 | > 50 | < 50 | > 50 | < 50 | > 50 |  |  |  |  |  |
| C[C@@H](Oc1cc(-c2cnn(C3CCNCC3)c2)cnc1N)c1c(Cl)ccc(F)c1Cl [Crizotinib, crizotinib] | < 50 | < 50 | < 50 | > 50 | < 50 | < 50 |  |  |  |  |  |
| OC(Cn1cncn1)(Cn1cncn1)c1ccc(F)cc1F [Fluconazole, fluconazole] | < 50 | < 50 | < 50 | < 50 | < 50 | < 50 |  |  |  |  |  |
| CC(=O)N1CCN(c2ccc(OCC3COC(Cn4ccnc4)(c4ccc(Cl)cc4Cl)O3)cc2)CC1 (stereo not drawn) [Ketoconazole, ketoconazole] | < 50 | > 50 | < 50 | < 50 | < 50 | > 50 | > 10 | 1 to 10 | 1 to 10 |  |  |
| Cc1c(O)cccc1C(=O)N[C@@H](CSc1ccccc1)[C@H](O)CN1C[C@H]2CCCC[C@H]2C[C@H]1C(=O)NC(C)(C)C [Nelfinavir, nelfinavir] | < 50 | > 50 | < 50 | > 50 | < 50 | > 50 |  |  |  |  |  |
| CC(C)NCC(O)COc1cccc2ccccc12 (stereo not drawn) [Propranolol, propranolol] | < 50 | < 50 | < 50 | < 50 | < 50 | < 50 |  |  |  |  |  |
| O=c1c(O)c(-c2ccc(O)c(O)c2)oc2cc(O)cc(O)c12 [Quercetin, quercetin] | < 50 | < 50 | < 50 | > 50 | < 50 | < 50 |  |  |  |  |  |
| C=C[C@H]1C[N@@]2CC[C@H]1C[C@@H]2[C@@H](O)c1ccnc2ccc(OC)cc12 [Quinidine, quinidine] | < 50 | < 50 | < 50 | < 50 | < 50 | < 50 |  |  |  |  |  |
| CO[C@H]1/C=C/O[C@@]2(C)Oc3c(C)c(O)c4c(O)c(c(/C=N/N5CCN(C)CC5)c(O)c4c3C2=O)NC(=O)/C(C)=C\C=C\[C@H](C)[C@H](O)[C@@H](C)[C@@H](O)[C@@H](C)[C@H](OC(C)=O)[C@@H]1C [Rifampicin] |  |  |  |  |  |  | > 10 | < 1 | > 10 |  |  |
| S=P(N1CC1)(N1CC1)N1CC1 [Thiotepa, thiotepa] | < 50 | < 50 |  |  | < 50 | < 50 |  |  |  | < 50 | < 50 |
| Cc1c(C)c2c(c(C)c1O)CCC(C)(COc1ccc(CC3SC(=O)NC3=O)cc1)O2 (stereo not drawn) [Troglitazone, troglitazone] | > 50 | > 50 | < 50 | > 50 | < 50 | > 50 | > 10 | 1 to 10 | 1 to 10 |  |  |
| CC[C@]1(O)C[C@@H]2CN(CCc3c([nH]c4ccccc34)[C@@](C(=O)OC)(c3cc4c(cc3OC)N(C)[C@H]3[C@@](O)(C(=O)OC)[C@H](OC(C)=O)[C@]5(CC)C=CCN6CC[C@]43[C@@H]65)C2)C1 [Vinblastine, vinblastine] | < 50 | < 50 | < 50 | < 50 | < 50 | < 50 |  |  |  |  |  |
